Values quoted from earlier work, collected in patent publication US20190307734A1 (Zhuhai Beihai Biotech Co., Ltd., priority 2016, published 2019).

What was measured:
[1] = not given; remark: listed apart in the source
CYP 2C9 = CYP 2C9 (Homo sapiens, UniProt P11712); conditions: in vitro
CYP 2C19 = CYP 2C19 (Homo sapiens, UniProt P33261); conditions: in vitro
CYP 2D6 = CYP 2D6 (Homo sapiens, UniProt P10635); conditions: in vitro
[2] = system: cytochrome P450 3A4 (CYP3A4)
p-glycoprotein = p-glycoprotein (Homo sapiens, UniProt P08183); conditions: in vitro
p-glycoprotein, sequence (P08183 whole entry): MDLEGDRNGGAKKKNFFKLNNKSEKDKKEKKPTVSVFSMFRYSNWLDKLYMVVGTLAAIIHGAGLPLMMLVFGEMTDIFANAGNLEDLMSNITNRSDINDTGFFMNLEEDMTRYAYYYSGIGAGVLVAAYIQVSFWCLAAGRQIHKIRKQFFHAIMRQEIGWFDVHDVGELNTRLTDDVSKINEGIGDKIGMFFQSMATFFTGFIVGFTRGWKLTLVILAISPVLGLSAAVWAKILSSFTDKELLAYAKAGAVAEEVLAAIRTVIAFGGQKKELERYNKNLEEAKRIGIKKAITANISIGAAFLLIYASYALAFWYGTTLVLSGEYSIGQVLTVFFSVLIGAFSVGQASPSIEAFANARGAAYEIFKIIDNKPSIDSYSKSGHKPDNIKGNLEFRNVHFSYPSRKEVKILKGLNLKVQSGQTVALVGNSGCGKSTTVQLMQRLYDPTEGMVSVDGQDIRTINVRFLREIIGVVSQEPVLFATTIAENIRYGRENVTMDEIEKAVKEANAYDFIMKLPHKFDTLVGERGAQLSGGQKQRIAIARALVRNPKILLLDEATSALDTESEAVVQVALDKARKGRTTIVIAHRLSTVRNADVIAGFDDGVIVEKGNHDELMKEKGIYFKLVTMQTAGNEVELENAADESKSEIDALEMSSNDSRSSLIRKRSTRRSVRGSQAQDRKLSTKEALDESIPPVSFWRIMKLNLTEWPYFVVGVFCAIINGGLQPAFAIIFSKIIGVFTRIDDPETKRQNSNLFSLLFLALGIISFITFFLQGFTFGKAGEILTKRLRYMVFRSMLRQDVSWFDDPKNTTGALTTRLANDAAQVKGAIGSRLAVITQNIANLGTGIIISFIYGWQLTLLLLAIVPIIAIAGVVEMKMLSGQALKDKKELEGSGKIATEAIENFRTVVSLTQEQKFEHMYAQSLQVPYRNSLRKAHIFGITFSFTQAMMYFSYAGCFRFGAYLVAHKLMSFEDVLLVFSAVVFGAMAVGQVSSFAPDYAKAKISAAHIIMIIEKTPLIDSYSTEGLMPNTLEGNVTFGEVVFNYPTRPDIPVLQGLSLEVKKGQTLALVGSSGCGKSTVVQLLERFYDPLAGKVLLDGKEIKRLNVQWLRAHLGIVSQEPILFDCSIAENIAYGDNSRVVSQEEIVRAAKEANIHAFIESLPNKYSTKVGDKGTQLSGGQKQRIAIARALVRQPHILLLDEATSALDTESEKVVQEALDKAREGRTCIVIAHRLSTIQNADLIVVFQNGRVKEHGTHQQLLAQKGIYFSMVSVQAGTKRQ

CYP 2C19, sequence (P33261 whole entry): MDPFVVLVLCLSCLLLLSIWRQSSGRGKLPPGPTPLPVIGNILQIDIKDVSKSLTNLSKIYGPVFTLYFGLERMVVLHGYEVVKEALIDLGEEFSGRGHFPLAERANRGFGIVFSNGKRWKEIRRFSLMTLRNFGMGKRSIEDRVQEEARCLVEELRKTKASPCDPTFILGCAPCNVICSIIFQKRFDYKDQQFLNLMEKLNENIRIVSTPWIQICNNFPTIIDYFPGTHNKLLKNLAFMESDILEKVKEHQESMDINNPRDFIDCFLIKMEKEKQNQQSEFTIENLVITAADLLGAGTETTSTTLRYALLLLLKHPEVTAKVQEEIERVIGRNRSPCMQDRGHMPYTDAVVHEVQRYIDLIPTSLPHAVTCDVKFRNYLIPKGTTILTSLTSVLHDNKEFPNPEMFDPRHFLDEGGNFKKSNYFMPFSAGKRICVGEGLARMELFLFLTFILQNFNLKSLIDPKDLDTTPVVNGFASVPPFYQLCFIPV
CYP 2D6, sequence (P10635 whole entry): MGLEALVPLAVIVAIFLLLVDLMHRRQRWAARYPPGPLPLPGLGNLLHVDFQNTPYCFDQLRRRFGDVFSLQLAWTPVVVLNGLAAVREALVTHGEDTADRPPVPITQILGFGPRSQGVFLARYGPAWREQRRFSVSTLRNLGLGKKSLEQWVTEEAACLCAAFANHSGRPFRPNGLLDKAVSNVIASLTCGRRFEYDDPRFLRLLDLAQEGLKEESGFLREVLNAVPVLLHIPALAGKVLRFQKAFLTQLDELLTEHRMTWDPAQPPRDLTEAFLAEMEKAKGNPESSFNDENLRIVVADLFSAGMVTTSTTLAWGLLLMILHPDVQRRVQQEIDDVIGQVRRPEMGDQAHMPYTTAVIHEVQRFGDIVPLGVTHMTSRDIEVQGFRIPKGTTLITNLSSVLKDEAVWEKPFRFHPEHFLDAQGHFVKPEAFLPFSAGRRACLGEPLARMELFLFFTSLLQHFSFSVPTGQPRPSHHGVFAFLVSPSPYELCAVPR
CYP 2C9, sequence (P11712 whole entry): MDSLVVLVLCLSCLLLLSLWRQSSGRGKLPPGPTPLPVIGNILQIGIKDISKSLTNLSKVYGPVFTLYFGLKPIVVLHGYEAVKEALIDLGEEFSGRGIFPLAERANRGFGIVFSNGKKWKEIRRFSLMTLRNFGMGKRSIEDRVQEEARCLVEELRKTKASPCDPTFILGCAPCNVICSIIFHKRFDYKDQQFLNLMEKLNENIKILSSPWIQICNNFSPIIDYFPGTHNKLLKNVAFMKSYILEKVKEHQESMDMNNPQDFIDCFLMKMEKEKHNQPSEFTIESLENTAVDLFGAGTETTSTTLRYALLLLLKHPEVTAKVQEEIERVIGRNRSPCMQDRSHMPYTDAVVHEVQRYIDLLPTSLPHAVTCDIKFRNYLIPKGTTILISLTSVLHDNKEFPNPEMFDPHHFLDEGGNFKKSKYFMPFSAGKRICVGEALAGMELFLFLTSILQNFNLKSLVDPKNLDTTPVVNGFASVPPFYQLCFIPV

Structure (SMILES) | solubility in aqueous solution, pH dependence (aqueous solution) | solubility in common pharmaceutical solvents (ethanol, propylene glycol, 40% hydroxypropyl beta cyclodextrin) | absorption after oral dosing [1] | protein bound to human plasma (human plasma) [%] | inhibition of CYP 2C9 (CYP 2C9) | inhibition of CYP 2C19 (CYP 2C19) | inhibition of CYP 2D6 (CYP 2D6) | induction or inhibition of CYP3A4 enzyme ([2]; Hesketh et al., Cancer 2016) | inhibition of CYP 3A4 ([2]; in vitro) | inhibition of p-glycoprotein (p-glycoprotein) | solubility at physiological pH (pH 7.4) [mcg/ml] | solubility in water (water)
C[C@@H](OC[C@@]1(c2ccccc2)CC[C@]2(CCC(=O)N2)CN1)c1cc(C(F)(F)F)cc(C(F)(F)F)c1.Cl [Rolapitant hydrochloride, rolapitant hydrochloride] | pH-dependent and is more soluble at lower pH | good solubility | – | – | – | – | – | – | – | – | – | –
C[C@@H](OC[C@@]1(c2ccccc2)CC[C@]2(CCC(=O)N2)CN1)c1cc(C(F)(F)F)cc(C(F)(F)F)c1 [Rolapitant, rolapitant] | – | – | rapidly absorbed | 99.8 | did not inhibit | did not inhibit | did not inhibit | does not induce or inhibit | did not inhibit | did not inhibit | < 4 | practically insoluble
